Like-named read-outs stand apart in the source and are kept apart here.
Biological target: T1, Humicola insolens cellobiose dehydrogenase, wild type (major form, 92 kDa, pI 4.0, purified from CELLUZYME), SEQ ID NO:2 (Mycothermus thermophilus, UniProt Q9P8H5)
T1 construct: mature 22-785 after 21-residue signal peptide
T1 sequence (Q9P8H5 22-785): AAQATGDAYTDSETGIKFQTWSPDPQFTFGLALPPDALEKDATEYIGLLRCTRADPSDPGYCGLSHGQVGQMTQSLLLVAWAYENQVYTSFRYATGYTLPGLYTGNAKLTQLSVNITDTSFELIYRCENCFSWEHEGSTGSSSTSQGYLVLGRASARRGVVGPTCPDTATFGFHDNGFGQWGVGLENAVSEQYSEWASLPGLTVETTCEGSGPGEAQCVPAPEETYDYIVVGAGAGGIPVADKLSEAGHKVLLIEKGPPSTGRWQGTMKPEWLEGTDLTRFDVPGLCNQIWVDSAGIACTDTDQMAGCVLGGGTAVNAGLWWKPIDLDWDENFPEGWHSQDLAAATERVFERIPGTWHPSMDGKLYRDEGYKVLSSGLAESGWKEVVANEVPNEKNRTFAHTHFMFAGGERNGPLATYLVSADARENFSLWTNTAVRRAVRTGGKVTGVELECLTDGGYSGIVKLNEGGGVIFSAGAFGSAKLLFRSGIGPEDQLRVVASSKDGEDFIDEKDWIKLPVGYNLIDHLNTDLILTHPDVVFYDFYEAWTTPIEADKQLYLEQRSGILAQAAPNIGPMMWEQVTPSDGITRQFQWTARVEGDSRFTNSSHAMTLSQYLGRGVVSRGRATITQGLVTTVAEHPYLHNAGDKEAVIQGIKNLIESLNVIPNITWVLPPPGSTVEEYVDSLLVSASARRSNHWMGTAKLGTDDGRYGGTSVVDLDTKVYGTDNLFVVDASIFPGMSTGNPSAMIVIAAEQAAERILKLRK
Experiment: Steady-state kinetics of cellobiose dehydrogenase with electron donors and acceptors (Lineweaver-Burke plots)
Format: biochemical
Details: 0.1 M sodium phosphate pH 7.5, 40° C.; for kcat (electron acceptor) / kcat (electron donor sugar): mol of oxidized cellobiose/s/mol of enzyme
Procedure: All absorption spectra and kinetic measurements were recorded on a Hewlett-Packard 8452A Diode Array Spectrophotometer in 0.75 ml black cuvettes with 1 cm optical path. The fluorescence spectra were recorded on a PERKIN ELMER LS 50.
Potassium ferricyanide (Merck): ε420 =970 M^-1.cm^-1, 3,5-di-tert-butyl-1,2-benzoquinone (Merck): ε410 =1,400 M^-1.cm^-1, Methylene Blue (Merck): ε610 =42,000 M^-1.cm^-1, cytochrome c (Sigma, from horse heart): ε550 =8,000 M^-1.cm^-1.
All measurements were performed in 0.1 M sodium phosphate pH 7.5 buffer at 40° C. […] The reactions were monitored for 400 s as changes in absorbance at the appropriate wavelength (see above). The benzoquinone was dissolved in ethanol to a concentration of 10 mM and diluted in phosphate buffer to the appropriate concentration. The catalytic constants (kcat) were expressed as mol of oxidized cellobiose/s/mol of enzyme. One equivalent of DCPIP, Methylene Blue, or benzoquinone oxidizes one equivalent of cellobiose whereas two equivalents of cytochrome c or ferricyanide oxidizes one equivalent of cellobiose. The kinetic constants were determined using Lineweaver-Burke plots and were the result of dual determinations.

[1] = electron acceptor + 225 μM cellobiose
[2] = electron acceptor + 225 μM cellobiose, read-out: Km (electron acceptor)
[3] = sugar + 90 μM DCPIP, read-out: Km (electron donor sugar)

| Structure (SMILES) | kcat (electron acceptor) [1] [s⁻¹] | Km [2] [µM] | kcat (electron donor sugar) (sugar + 90 μM DCPIP) [s⁻¹] | Km [3] [µM] |
| --- | --- | --- | --- | --- |
| CN(C)c1ccc2nc3ccc(=[N+](C)C)cc-3sc2c1 [Methylene Blue] | 1.85 | 18 | – | – |
| OC[C@H]1OC(O)[C@H](O)[C@@H](O)[C@@H]1O (stereo partly drawn) [Glucose] | – | – | 0 | – |
| OC[C@H]1O[C@H](O[C@H]2[C@H](O)[C@@H](O)[C@H](O)O[C@@H]2CO)[C@H](O)[C@@H](O)[C@@H]1O [Maltose] | – | – | 0.83 | 11000 |
| CC(=O)N[C@H]1[C@H](O[C@H]2[C@H](O)[C@@H](NC(C)=O)C(O)O[C@@H]2CO)O[C@H](CO)[C@@H](O)[C@@H]1O (stereo partly drawn) [N,N-Diacetylchitobiose, N,N-diacetylchitobiose] | – | – | 0 | – |
| O=C1C(Cl)=CC(=Nc2ccc(O)cc2)C=C1Cl [DCPIP, 2,6-dichlorophenolindophenol] | 12 | 26 | – | – |
| OC[C@H]1O[C@@H](O[C@H]2[C@H](O)[C@@H](O)C(O)O[C@@H]2CO)[C@H](O)[C@@H](O)[C@H]1O (stereo partly drawn) [Lactose] | – | – | 10 | 51 |
| OC[C@H]1O[C@@H](O[C@H]2[C@H](O)[C@@H](O)C(O)O[C@@H]2CO)[C@H](O)[C@@H](O)[C@@H]1O (stereo partly drawn) [Cellobiose] | – | – | 10 | 11 |
| CC(=O)N[C@H]1C(O)O[C@H](CO)[C@@H](O[C@@H]2O[C@H](CO)[C@H](O)[C@H](O)[C@H]2O)[C@@H]1O (stereo partly drawn) [N-Acetyllactosamine, N-acetyllactosamine] | – | – | 0 | – |
| OC[C@H]1O[C@@H](O[C@H]2[C@H](O)[C@@H](O)[C@H](O[C@H]3[C@H](O)[C@@H](O)[C@H](O[C@H]4[C@H](O)[C@@H](O)[C@H](O[C@H]5[C@H](O)[C@@H](O)C(O)O[C@@H]5CO)O[C@@H]4CO)O[C@@H]3CO)O[C@@H]2CO)[C@H](O)[C@@H](O)[C@@H]1O (stereo partly drawn) [Cellopentaose] | – | – | 8.3 | – |
| OC1OC[C@@H](O[C@@H]2OC[C@@H](O)[C@H](O)[C@H]2O)[C@H](O)[C@H]1O (stereo partly drawn) [Xylobiose] | – | – | 2.15 | – |
